Results reported in patent publication US8058475B2, “Substituted cyclohexylmethyl compounds” (Gruenenthal GmbH, priority 2005, dated 2011).
pKi: −log10 of the molar value. Read-outs that look alike come from different tables or passages of the source.

Molecular target: human μ-opiate receptor (Homo sapiens, UniProt P35372)
Assay: Affinity for the human μ-opiate receptor ([3H]-naloxone displacement, SPA, CHO-K1 membrane preparation)
Format: binding
Details: for inhibition at 1 µM: read-out: μ-Opioid receptor, % inhibition [1 μM]; for pKi: read-out: μ-Opioid receptor, Ki

Sequence of human μ-opiate receptor (P35372 whole entry): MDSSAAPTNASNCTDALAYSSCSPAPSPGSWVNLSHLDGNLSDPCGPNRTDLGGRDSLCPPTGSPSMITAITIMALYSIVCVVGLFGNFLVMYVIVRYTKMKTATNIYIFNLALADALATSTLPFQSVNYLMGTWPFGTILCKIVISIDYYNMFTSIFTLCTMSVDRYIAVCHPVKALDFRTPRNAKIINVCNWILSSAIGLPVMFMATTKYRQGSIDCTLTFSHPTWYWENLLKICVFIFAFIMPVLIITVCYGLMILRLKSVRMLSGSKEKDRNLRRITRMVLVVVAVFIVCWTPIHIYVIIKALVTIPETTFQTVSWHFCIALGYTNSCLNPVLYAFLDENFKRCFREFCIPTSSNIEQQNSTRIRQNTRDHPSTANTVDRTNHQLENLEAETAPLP

## CN(C)C(c1ccc(F)cc1)C1CCC(NC(=O)c2cc(F)c(F)cc2F)CC1 (stereo not drawn) [compound 271, N-{4-[dimethylamino-(4-fluoro-phenyl)-methyl]-cyclohexyl}-2,4,5-trifluoro-benzamide]
  inhibition at 1 µM: 75%
  pKi: 7.72

## Cc1nc(-c2ccc3c(c2)CCO3)sc1C(=O)NC1CCC(C(c2cccs2)N(C)C)CC1 (stereo not drawn) [compound 283, 2-(2,3-dihydro-benzofuran-5-yl)-4-methyl-thiazole-5-carboxylic acid [4-(dimethylamino-thiophen-2-yl-methyl)-cyclohexyl]-amide]
  inhibition at 1 µM: 72%
  pKi: 6.82

## Cc1cc(C(=O)NCC2CCC(C(c3cccs3)N(C)C)CC2)n(C(C)(C)C)n1 (stereo not drawn) [compound 366, 2-tert-butyl-5-methyl-2H-pyrazole-3-carboxylic acid [4-(dimethylamino-thiophen-2-yl-methyl)-cyclohexylmethyl]-amide]
  inhibition at 1 µM: 85%
  pKi: 7.25

## CN(C)C(c1ccccc1)C1CCC(CCNC(=O)c2cccc(C#N)c2)CC1 (stereo not drawn) [compound 477, 3-cyano-N-{2-[4-(dimethylamino-phenyl-methyl)-cyclohexyl]-ethyl}-benzamide]
  inhibition at 1 µM: 96%
  pKi: 7.89

## CCSc1ncccc1C(=O)NCC1CCC(C(c2ccccc2)N(C)C)CC1 (stereo not drawn) [compound 310, N-[4-(dimethylamino-phenyl-methyl)-cyclohexylmethyl]-2-ethylsulfanyl-nicotinamide]
  inhibition at 1 µM: 98%
  pKi: 7.80

## CN(C)C(c1ccccc1)C1CCC(CNC(=O)c2cncc(Br)c2)CC1 (stereo not drawn) [compound 386, 5-bromo-N-[4-(dimethylamino-phenyl-methyl)-cyclohexylmethyl]-nicotinamide]
  inhibition at 1 µM: 82%
  pKi: 7.00

## CN(C)C(c1ccccc1)C1CCC(CCNC(=O)c2ccccc2F)CC1 (stereo not drawn) [compound 410, N-{2-[4-(dimethylamino-phenyl-methyl)-cyclohexyl]-ethyl}-2-fluoro-benzamide]
  inhibition at 1 µM: 88%
  pKi: 8.24

## Cc1cccc(C(=O)NC2CCC(C(CCc3ccccc3)N(C)C)CC2)c1 (stereo not drawn) [compound 248, N-[4-(1-dimethylamino-3-phenyl-propyl)-cyclohexyl]-3-methyl-benzamide]
  inhibition at 1 µM: 81%
  pKi: 7.06

## CN(C)C(c1cccs1)C1CCC(CCNC(=O)c2cccc(Cl)c2)CC1 (stereo not drawn) [compound 424, 3-chloro-N-{2-[4-(dimethylamino-thiophen-2-yl-methyl)-cyclohexyl]-ethyl}-benzamide]
  inhibition at 1 µM: 99%
  pKi: 8.57

## CN(C)C(c1ccccc1)C1CCC(CNC(=O)c2ccc(F)c(F)c2)CC1 (single isomer, unassigned) [compound 294, N-[4-(dimethylamino-phenyl-methyl)-cyclohexylmethyl]-3,4-difluoro-benzamide]
  inhibition at 1 µM: 101%
  pKi: 8.08

## CN(C)C(c1cccc(F)c1)C1CCC(CCNC(=O)c2ccc(F)cc2)CC1 (stereo not drawn) [compound 409, N-(2-{4-[dimethylamino-(3-fluoro-phenyl)-methyl]-cyclohexyl}-ethyl)-4-fluoro-benzamide]
  inhibition at 1 µM: 84%
  pKi: 7.55

## Cc1cccc(C(=O)NCC2CCC(C(c3ccccc3)N(C)C)CC2)c1 (stereo not drawn) [compound 362, N-[4-(dimethylamino-phenyl-methyl)-cyclohexylmethyl]-3-methyl-benzamide]
  inhibition at 1 µM: 85%
  pKi: 7.22

## Cc1c(S(=O)(=O)c2ccc(Cl)cc2)csc1C(=O)NC1CCC(C(c2ccccc2)N(C)C)CC1 (stereo not drawn) [compound 253, 4-(4-chloro-benzenesulfonyl)-3-methyl-thiophene-2-carboxylic acid [4-(dimethylamino-phenyl-methyl)-cyclohexyl]-amide]
1 µM
  μ-Opioid receptor, % inhibition [1 μM]: 80%
  pKi: 7.10

## CC(=O)N(CCc1c[nH]c2ccccc12)C1CCC(C(c2ccccc2)N(C)C)CC1 (stereo not drawn) [compound 182, N-(2-(1H-indol-3-yl)ethyl)-N-(4-((dimethylamino)(phenyl)methyl)cyclohexyl)-acetamide]
  inhibition at 1 µM: 95%
  pKi: 8.68

## CN(C)C(c1cccc(F)c1)C1CCC(CCNC(=O)c2cccc(Cl)c2)CC1 (single isomer, unassigned) [compound 401, 3-chloro-N-(2-{4-[dimethylamino-(3-fluoro-phenyl)-methyl]-cyclohexyl}-ethyl)-benzamide]
1 µM
  μ-Opioid receptor, % inhibition [1 μM]: 97%
  pKi: 7.96

## CN(C)C(c1ccc(Cl)cc1)C1CCC(CCNC(=O)c2ccc(F)c(F)c2)CC1 (stereo not drawn) [compound 445, N-(2-{4-[(4-chloro-phenyl)-dimethylamino-methyl]-cyclohexyl}-ethyl)-3,4-difluoro-benzamide]
  inhibition at 1 µM: 86%
  pKi: 7.16

## CN(C)C(c1ccccc1)C1CCC(NC(=O)c2cccc3ccccc23)CC1 (stereo not drawn) [compound 226, naphthyl-1-carboxylic acid [4-(dimethylamino-phenyl-methyl)-cyclohexyl]-amide]
  μ-Opioid receptor, % inhibition [1 μM]: 87%
  pKi: 7.24

## CN(C)C(c1cccc(F)c1)C1CCC(CNC(=O)c2cc(Cl)cc(Cl)c2)CC1 (stereo not drawn) [compound 371, 3,5-dichloro-N-{4-[dimethylamino-(3-fluoro-phenyl)-methyl]-cyclohexylmethyl}-benzamide]
  inhibition at 1 µM: 84%
  pKi: 6.89

## CCC(C(=O)NCCC1CCC(C(c2ccc(Cl)cc2)N(C)C)CC1)c1ccccc1 (stereo not drawn) [compound 455, N-(2-{4-[(4-chloro-phenyl)-dimethylamino-methyl]-cyclohexyl}-ethyl)-2-phenyl-butyramide]
  inhibition at 1 µM: 81%
  pKi: 7.16

## CN(C)C(c1ccccc1)C1CCC(NC(=O)Cc2ccc(Cl)cc2)CC1 (stereo not drawn) [compound 206, 2-(4-chloro-phenyl)-N-[4-(dimethylamino-phenyl-methyl)-cyclohexyl]-acetamide]
  inhibition at 1 µM: 93%
  pKi: 7.25

## CN(C)C(c1ccccc1)C1CCC(NC(=O)c2csc(-c3ccc4c(c3)CCO4)n2)CC1 (stereo not drawn) [compound 289, 2-(2,3-dihydro-benzofuran-5-yl)-thiazole-4-carboxylic acid [4-(dimethylamino-phenyl-methyl)-cyclohexyl]-amide]
  inhibition at 1 µM: 70%
  pKi: 7.11

## CN(C)C(c1cccc(F)c1)C1CCC(NC(=O)c2cc3ccccc3s2)CC1 (stereo not drawn) [compound 231, benzo[b]thiophene-2-carboxylic acid {4-[dimethylamino-(3-fluoro-phenyl)-methyl]-cyclohexyl}-amide]
  inhibition at 1 µM: 86%
  pKi: 7.35

## CCC(C(=O)NC1CCC(C(c2cccc(F)c2)N(C)C)CC1)c1ccccc1 (stereo not drawn) [compound 273, N-{4-[dimethylamino-(3-fluoro-phenyl)-methyl]-cyclohexyl}-2-phenyl-butyramide]
  inhibition at 1 µM: 75%
  pKi: 7.09

## CC(=O)N(C(C)Cc1c[nH]c2ccccc12)C1CCC(C(c2ccccc2)N(C)C)CC1 (stereo not drawn) [compound 178, N-(1-(1H-indol-3-yl)propan-2-yl)-N-(4-((dimethylamino)(phenyl)methyl)-cyclohexyl)acetamide]
  inhibition at 1 µM: 96%
  pKi: 8.92

## COc1cccc(CC(=O)NCC2CCC(C(c3ccccc3)N(C)C)CC2)c1 (stereo not drawn) [compound 349, N-[4-(dimethylamino-phenyl-methyl)-cyclohexylmethyl]-2-(3-methoxy-phenyl)-acetamide]
  inhibition at 1 µM: 89%
  pKi: 7.30

## CN(C)C(c1ccccc1)C1CCC(NC(=O)c2c(F)ccc(F)c2F)CC1 (stereo not drawn) [compound 244, N-[4-(dimethylamino-phenyl-methyl)-cyclohexyl]-2,3,6-trifluoro-benzamide]
  inhibition at 1 µM: 82%
  pKi: 7.52

## CN(C)C(CCc1ccccc1)C1CCC(NC(=O)c2ccc(F)c(C(F)(F)F)c2)CC1 (single isomer, unassigned) [compound 227, N-[4-(1-dimethylamino-3-phenyl-propyl)-cyclohexyl]-4-fluoro-3-trifluoromethyl-benzamide]
1 µM
  μ-Opioid receptor, % inhibition [1 μM]: 87%
  pKi: 7.24

## CN(C)C(c1ccccc1)C1CCC(NC(=O)c2cncc(Br)c2)CC1 (stereo not drawn) [compound 235, 5-bromo-N-[4-(dimethylamino-phenyl-methyl)-cyclohexyl]-nicotinamide]
  inhibition at 1 µM: 84%
  pKi: 7.21

## CN(C)C(c1cccs1)C1CCC(CNC(=O)c2cccc(C#N)c2)CC1 (stereo not drawn) [compound 347, 3-cyano-N-[4-(dimethylamino-thiophen-2-yl-methyl)-cyclohexylmethyl]-benzamide]
  inhibition at 1 µM: 90%
  pKi: 7.59

## CN(C)C(c1cccs1)C1CCC(CNC(=O)c2cc(F)cc(C(F)(F)F)c2)CC1 (stereo not drawn) [compound 308, N-[4-(dimethylamino-thiophen-2-yl-methyl)-cyclohexylmethyl]-3-fluoro-5-trifluoromethyl-benzamide]
  inhibition at 1 µM: 98%
  pKi: 8.13

## CN(C)C(c1ccccc1)C1CCC(CCNC(=O)c2cccnc2Sc2ccc(Cl)cc2)CC1 (single isomer, unassigned) [compound 470, 2-(4-chloro-phenylsulfanyl)-N-{2-[4-(dimethylamino-phenyl-methyl)-cyclohexyl]-ethyl}-nicotinamide]
  inhibition at 1 µM: 91%
  pKi: 7.15

## CN(C)C(c1ccccc1)C1CCC(CCNC(=O)c2cccs2)CC1 (stereo not drawn) [compound 452, thiophene-2-carboxylic acid {2-[4-(dimethylamino-phenyl-methyl)-cyclohexyl]-ethyl}-amide]
  inhibition at 1 µM: 99%
  pKi: 7.92

## CN(C)C(c1ccc(Cl)cc1)C1CCC(CNC(=O)c2ccccc2Br)CC1 (stereo not drawn) [compound 394, 2-bromo-N-{4-[(4-chloro-phenyl)-dimethylamino-methyl]-cyclohexylmethyl}-benzamide]
  inhibition at 1 µM: 79%
  pKi: 7.32

## CN(C)C(c1cccc(F)c1)C1CCC(CCNC(=O)c2cccc(Cl)c2)CC1 (single isomer, unassigned) [compound 400, 3-chloro-N-(2-{4-[dimethylamino-(3-fluoro-phenyl)-methyl]-cyclohexyl}-ethyl)-benzamide]
  inhibition at 1 µM: 94%
  pKi: 7.64

## COc1c(C(=O)NC2CCC(C(c3cccc(F)c3)N(C)C)CC2)csc1Cl (stereo not drawn) [compound 191, 5-chloro-4-methoxy-thiophene-3-carboxylic acid {4-[dimethylamino-(3-fluoro-phenyl)-methyl]-cyclohexyl}-amide]
  inhibition at 1 µM: 99%
